From patent US20260132160A1, “IRON REPLACEMENT TREATMENTS” (The General Hospital Corporation, priority 2022, published 2026)

Assays:
[1] = Stability of Fe-BBG against trans-chelation by endogenous chelators (UV-vis); assay type: physicochemical
Excerpt: In other words, the ligand BBG binds to Fe^3+ with an estimated 230±40 times higher affinity than citrate.

apo-transferrin = apo-transferrin (Homo sapiens, UniProt P02787); experiment: Time course of Fe3+ transfer to apo-transferrin (fluorescence at 330 nm); assay type: biochemical; settings: 40 μM Fe-BBG, 20 μM apo-transferrin, pH 7.4; instrument temporal resolution 6 s
Sequence of apo-transferrin (P02787 20-698): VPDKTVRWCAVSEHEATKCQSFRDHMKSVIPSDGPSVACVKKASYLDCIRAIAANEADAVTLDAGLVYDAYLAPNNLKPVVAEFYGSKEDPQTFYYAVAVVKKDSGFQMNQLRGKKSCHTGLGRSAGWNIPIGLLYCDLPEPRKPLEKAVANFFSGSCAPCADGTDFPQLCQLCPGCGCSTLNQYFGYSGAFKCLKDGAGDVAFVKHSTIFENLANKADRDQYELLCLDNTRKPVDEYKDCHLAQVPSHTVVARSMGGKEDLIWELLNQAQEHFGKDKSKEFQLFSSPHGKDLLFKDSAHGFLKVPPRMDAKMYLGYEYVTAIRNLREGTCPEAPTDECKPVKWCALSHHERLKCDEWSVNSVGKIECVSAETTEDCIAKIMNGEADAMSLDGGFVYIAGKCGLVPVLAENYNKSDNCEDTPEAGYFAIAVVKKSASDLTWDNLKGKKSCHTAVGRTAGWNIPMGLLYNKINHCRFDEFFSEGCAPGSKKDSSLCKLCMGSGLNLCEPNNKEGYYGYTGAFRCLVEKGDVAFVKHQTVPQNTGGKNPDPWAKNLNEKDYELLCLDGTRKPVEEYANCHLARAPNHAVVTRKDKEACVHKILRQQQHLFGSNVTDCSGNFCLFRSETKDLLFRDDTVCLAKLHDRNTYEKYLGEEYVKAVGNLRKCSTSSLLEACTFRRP
Protocol: FIG. 5 plots the time course of Fe^3+ transfer of Fe-BBG to transferrin. The reaction was monitored through the quenching of apo-transferrin intrinsic fluorescence (conditions: 40 μM Fe-BBG, 20 μM apo-transferrin, 50 mM HEPES buffer supplemented with 25 mM HCO3, pH 7.4; 25° C. λEx=280 nm.). Fe^3+ transfer from Fe-BBG to apo-transferrin was complete within 6 s. The temporal resolution of the instrument is 6 s, and the reaction is too fast for us to quantify kinetics.

[2] = pH-potentiometric titration, Fe3+ complex; assay type: physicochemical; settings: 310 K, I=0.1 M NaCl
Protocol: The aqueous solutions thermodynamics of BBG and its corresponding complexes of Fe^3+, Cu^2+, and Zn^2+ were interrogated through pH-potentiometric titration of BBG (L) in the absence and presence of 1 molar equivalent of Fe^3+, Cu^2+, or Zn^2+, FIG. 13A.
pH-potentiometric measurements were performed using an Orion ROSS Ultra pH electrode and temperature-controlled reaction vessel held at 310 K. A standardized solution of 0.10 M NaOH was used as the titrant. The electrode was calibrated prior to each titration by titrating a standardized HCl(aq) solution at ionic strength 0.10 using NaCl as the inert electrolyte with the standardized NaOH titrant. A working slope and intercept were generated by plotting mV as a function of calculated pH, which enabled direct conversion of electrode readings to [H^+] during sample titrations. pH values recorded during the titrations refers to hydrogen ion concentration. All titration samples were prepared in solutions of 0.10 M NaCl in distilled, deionized water. Ligand solutions were prepared by dissolving a weighed quantity into water and concentration was determined from the effective weight of the ligand and confirmed by the quantity of NaOH required to consume 1 molar equivalent of ligand proton. […]

Tmprss6 knockout mice = experiment: Tolerability after repeat dosing (clinical chemistry, liver qPCR); assay type: in vivo, mouse
Protocol: Tmprss6 knockout mice received 29 intraperitoneal injections each containing 25 μg Fe as Fe-BBG (1.3±0.18 μg Fe per gram body weight, N=5 mice, 2 male, 3 female) or containing saline (placebo, N=5 mice, 2 male, 3 female) over 15 days. The cumulative dose of Fe was 725 μg Fe (37±0.53 μg Fe per gram body weight). The mice were euthanized 120 min after the final injection. Blood was harvested for measurement of complete blood counts, and nonheme Fe parameters. Bone marrow and liver tissue were analyzed by qPCR for expression of genes related to erythropoietic activity, Fe exposure, oxidative stress, and inflammation, the data are tabulated in FIG. 15. Clinical chemistry was also recorded, see Example 16 below. FIG. 15 data are shown as mean±standard deviation. Statistical differences between groups were determined by two-tailed Student's t-test for normally distributed values or Mann-Whitney (/test for non-normally distributed values. Significant differences are indicated by *P<0.05, **P<0.01, ****P<0.0001.
FIG. 16 data are shown as mean±standard deviation. Statistical differences between groups were determined by two-tailed Student's t-test for normally distributed values or Mann-Whitney U test for non-normally distributed values. Significant differences are indicated by *P<0.05, **P<0.01, ***P<0.001, ****P<0.0001.

O.O.O=C([O-])CC[C@H]1C(=O)[O][Fe]2[O]c3ccccc3CN1Cc1ccccc1[O]2 [Fe-BBG]
stability against trans-chelation by endogenous chelators [1]: stable against trans-chelation reactions
Kcomp for challenge with citrate ([1]; 0-10 molar equivalents citrate, absorbance at 465 nm, pH 7.4): 0.006±0.002
UV-vis traces in presence of competing chelators ([1]; 0.1 mM Fe-BBG, up to 100 molar equivalents bicarbonate, acetate, lactate, phosphate, pH 7.4 50 mM HEPES): remain unchanged
time to complete Fe^3+ transfer to apo-transferrin (apo-transferrin): ≤ 6 s
conditional pH 7.4 stability constant log KFeL PH 7.4 [2]: 19.51
oxidative stress (Tmprss6 knockout mice; from Hmox1, Gclc, NqoI taken together): did not result in oxidative stress
Serum amyloid A1 (SaaI) expression (Tmprss6 knockout mice; qPCR, marker of inflammation, repeat dosing): unchanged
liver NAD (P) H quinone dehydrogenase 1 (NqoI) expression (Tmprss6 knockout mice; qPCR, repeat dosing): did not trigger upregulation
liver glutamate-cysteine ligase catalytic subunit (Gclc) expression (Tmprss6 knockout mice; qPCR, repeat dosing): did not trigger upregulation
liver heme oxygenase 1 (Hmox1) expression (Tmprss6 knockout mice; qPCR, repeat dosing): did not trigger upregulation
clinical chemistry parameters (Tmprss6 knockout mice; repeat dosing, vs placebo): did not generate significant differences
